Reference: paper PMC8891108, “Development and characterization of anti-fibrotic natural compound similars with improved effectivity” (Basic Research in Cardiology, 2022)
pEC50: −log10 of the molar value.

Columns and labels:
Assay type in all cases: cell-based
[1] = test system: human cardiac fibroblasts (HCF); assay: TaqMan Array Human MicroRNA Cards, miRNA deregulation in HCF
Experimental: PCR amplification of array cards was performed as instructed. After quality control of all real-time qPCRs, cT values were exported and all runs were merged into a single excel file. Recommended baseline correction using relative thresholds to correct for varying reconstitution rates of different Taqman probes was not performed. Low-expressed miRNAs with cT > 32 in more than 1 replicate per treatment were excluded from analysis, before samples were normalized to column mean. Multiple unpaired t tests were performed using GraphPad Prism, deregulations were accepted as discoveries if FDR ≤ 1% (using BKY adjustment). As miRNA identifiers were based on miRbase v14, we converted them to the latest v22 for further analysis using miRBaseConverter. 747 sequences could be converted correctly, while the remaining miRNAs were removed from miRbase due to incorrect annotation (e.g. the sequences of hsa-miR-886-3p and hsa-miR-886-5p are part of VTRNA2-1 [44]) or no evidence of human expression.

[2] = test system: human cardiac fibroblasts (HCF); assay: BrdU incorporation, HCF proliferation (first screen); conditions: Homo sapiens, Cardiac fibroblast, 24 h, read-out: Effective conc. (BrdU), EC50 by BrdU assay
Experimental: 96-well plates (TPP) were coated with 0.1% gelatine and seeded with 7500 HCFs/well. After 72 h, medium was exchanged with serial dilutions of compounds in FGM-3 + 1.6% DMSO + 1% 5-bromo-2′-deoxyuridine (BrdU, Roche, #11647229001), prepared in additional plates. After 24 h, cells were washed twice with DPBS (Gibco, #14190144) before incubation with anti-BrdU:POD (Roche, #11647229001) for 60 min (RT). Readout was performed by measurement of absorbance at 370 nm + 490 nm in a Synergy HT (BioTek) microplate reader. […] As validation, HCF were seeded as before, but treated with serial dilutions of compounds after 24 h. […] After 60 min of incubation (37 °C, in the dark), absorbance at 450 nm + 630 nm was measured maintaining 37 °C and analysed as described before.
To assess screening quality, quality acceptance criteria Z′ (Z prime), SW (signal window), S:B (signal-to-background), S:N (signal-to-noise) were determined following. Average Z′ ≥ 0.5 and SW ≥ 2 were required to accept the screening overall, whereas single plates were rejected from analysis if Z′ < 0.3 or SW < 1.

[3] = test system: human cardiac fibroblasts (HCF); assay: Caspase-3/7 activation (Caspase-Glo) in HCF; conditions: within the tested concentration range
Experimental: (§1) As contrast to activity, toxicity of top six similars and lead compounds was determined by a multiplex measurement of caspase activation and membrane integrity (using LDH release and inclusion of the CellTox Green dye). Briefly, HCFs were seeded as before. After 24 h, cells were treated with serial dilutions of compounds with additional 0.1% CellTox™ Green dye (Promega, #G8741). After 24 h incubation, 5 µL medium was removed from each well, mixed with 95 µL LDH Storage buffer (Promega, #J2380) and frozen for later analysis. 95 µL Caspase-Glo® 3/7 reagent (Promega, #G8090) was added to each well, and after 60 min of incubation luminescence was measured in a Synergy HT. Afterwards, micrographs of brightfield and green fluorescence were taken using a Cytation 1 (BioTek) automated microscope maintaining 37 °C and 5% CO2. Wells were manually checked for co-localization of fluorescence signal with cells in brightfield. On the next day, supernatants in LDH Storage buffer were thawed, and 50 µL was mixed with 50 µL of LDH Detection reagent and luminescence was measured after 60 min of incubation. Dose–response curves were determined as described before. To determine toxicity of the top 3 anti-fibrotic similars in hiPS-CM, 20,000 cells/well were seeded, treated and analysed as above, devoid the fluorescent dye steps.

[4] = test system: human cardiac fibroblasts (HCF); assay: In vitro migration (scratch) assay of HCF; conditions: 10 × EC50
Experimental: To assess migrative capabilities of HCF, cells were stained with 1:1000 1,1′-Dioctadecyl-3,3,3′,3′-Tetramethylindotricarbocyanine Iodide (DIR′) dye in FGM-3 for 20 min at 37 °C. Cells were washed with DPBS and seeded into 0.1% gelatine-coated 96-well plates at 30,000 cells per well. […] After 17 h and 24 h, plates were imaged again. Rate of migration was determined using the migrative index (MI).

[5] = test system: human iPS-derived cardiomyocytes (hiPS-CM); assay: Caspase-3/7 activation in hiPS-CM; conditions: maximal available concentration
Experimental: as §1

[6] = test system: human iPS-derived cardiomyocytes (hiPS-CM); assay: LDH release in hiPS-CM; conditions: maximal available concentration
Experimental: as §1

[7] = mean of DMSO minus mean of treatment

SMILES	Mean of treatment, hsa-miR-125a-5p-002198 ([1]; cT normalized to column mean)	Mean of treatment, hsa-miR-132-000457 ([1]; cT normalized to column mean)	Mean of treatment, hsa-miR-146a-000468 ([1]; cT normalized to column mean)	Mean of treatment, hsa-miR-886-3p-002194 ([1]; cT normalized to column mean)	Difference / ΔCT, hsa-miR-125a-5p-002198 [1, 7]	Difference / ΔCT, hsa-miR-132-000457 [1, 7]	Difference / ΔCT, hsa-miR-146a-000468 [1, 7]	Difference / ΔCT, hsa-miR-886-3p-002194 [1, 7]	pEC50 [2]	induction of Caspase-3/7 [3]	HCF migration [4]	Caspase-3/7 activation [5]	LDH release [6]
C[C@]12CC[C@H](O)C[C@H]1CC[C@@H]1[C@@H]2CC[C@]2(C)[C@@H](c3ccc(=O)oc3)CC[C@]12O [Bufalin, bufalin]	-1.094	-3.644	-6.478	-0.5419	-1.48	1.1	-1.167	-2.302	8.68	dose-dependent induction of Caspase-3/7	nearly complete lack of migration within the first half hour		
COc1cccc2c1C(=O)c1c(O)c3c(c(O)c1C2=O)C[C@@](O)(C(=O)CO)C[C@@H]3O[C@H]1C[C@H](N)[C@H](O)[C@H](C)O1 [doxorubicin]												Caspase-3/7 activation	increased LDH release
